Laboratory results from ChEMBL document CHEMBL4483862, “Open-source discovery of chemical leads for next-generation chemoprotective antimalarials” (2018).

Test system: Plasmodium berghei
Assay: Luciferase/luciferin-expressing antifolate-resistant parasites were used to infect a culture of HepG2 cells that were pre-incubated with compounds. Infected hepatocytes emit light due to the luciferase reaction. Assay results are presented as the percent inhibition of light emission compared to control. […]
Format: functional
Details: sporozoite; for IC90: read-out: LUCIFERASE INFECTION ASSAY - IC90

| Compound | IC90 [µM] | also measured |
| --- | --- | --- |
| O=C(Nc1ccc(OC(F)(F)F)cc1)c1c(-c2ccccc2)nnc2ccccc12 | > 8.06 | IC50 (FFLUC_HILL_SLOPE 2.82, FFLUC_R_SQUARED 0.654, HEPG2TOX_HILL_SLOPE 0.161, HEPG2TOX_R_SQUARED 0.349, PBLUC_HILL_SLOPE 0.343, PBLUC_R_SQUARED 0.11, read-out: LUCIFERASE INFECTION ASSAY - IC50): > 8.06 µM |
| O=C1Nc2ccc(Cl)cc2/C1=C/c1ccc(-c2ccccc2)cc1 | > 10 | IC50 (FFLUC_HILL_SLOPE 2.74, FFLUC_R_SQUARED 0.354, PBLUC_HILL_SLOPE 5.72, PBLUC_R_SQUARED 0.824, read-out: LUCIFERASE INFECTION ASSAY - IC50): 8.45 µM |
| Cc1cc(C2(c3cc(C)n(-c4ccccc4)c3C)CCC(C)CC2)c(C)n1-c1ccccc1 | > 10 | IC50 (FFLUC_HILL_SLOPE 2.77, FFLUC_R_SQUARED 0.531, read-out: LUCIFERASE INFECTION ASSAY - IC50): > 10 µM |
| O=C(OC1(C(F)(F)F)C(=O)Nc2c1ccc1ccccc21)c1cccs1 (stereo not given) | > 10 | IC50 (FFLUC_HILL_SLOPE 2.8, FFLUC_R_SQUARED 0.511, PBLUC_HILL_SLOPE 11.1, PBLUC_R_SQUARED 0.378, read-out: LUCIFERASE INFECTION ASSAY - IC50): 9.81 µM |
| Cc1nc(C2(NC(=O)COc3ccc4ccccc4c3)CCCCC2)no1 | > 10 | IC50 (FFLUC_HILL_SLOPE 2.65, FFLUC_R_SQUARED 0.0928, read-out: LUCIFERASE INFECTION ASSAY - IC50): > 10 µM |
| CC1(C)CC(=O)C(C(c2ccc(OCc3ccccc3)cc2)C2C(=O)CC(C)(C)CC2=O)C(=O)C1 | > 10 | IC50 (FFLUC_HILL_SLOPE 2.7, FFLUC_R_SQUARED 0.381, read-out: LUCIFERASE INFECTION ASSAY - IC50): > 10 µM |
| Cc1ccc(/N=c2\scc(-c3cccc(C(F)(F)F)c3)n2/N=C/c2ccc3ncccc3c2)c(C)c1 | > 10 | IC50 (FFLUC_HILL_SLOPE 2.84, FFLUC_R_SQUARED 0.529, read-out: LUCIFERASE INFECTION ASSAY - IC50): > 10 µM |
| CCOC(=O)c1c(-c2ccc(Br)cc2)cn2c(=O)/c(=C3\C=CC=CN3C)sc12 | > 10 | IC50 (FFLUC_HILL_SLOPE 2.7, FFLUC_R_SQUARED 0.575, PBLUC_HILL_SLOPE 2.12, PBLUC_R_SQUARED 0.479, read-out: LUCIFERASE INFECTION ASSAY - IC50): 7.05 µM |
| CC(C)c1cc(C(C)C)c(S(=O)(=O)Nc2ccc(O)cc2)c(C(C)C)c1 | 3.98 | IC50 (FFLUC_HILL_SLOPE 2.79, FFLUC_R_SQUARED 0.606, PBLUC_HILL_SLOPE 11.9, 14.6, PBLUC_R_SQUARED 0.380, 0.737, read-out: LUCIFERASE INFECTION ASSAY - IC50): 3.36 µM |
| COc1ccccc1-n1c(SCC(=O)NNC(=O)c2ccc([N+](=O)[O-])cc2)nc2ccccc2c1=O | > 10 | IC50 (FFLUC_HILL_SLOPE 2.82, FFLUC_R_SQUARED 0.966, read-out: LUCIFERASE INFECTION ASSAY - IC50): > 10 µM |
| COC(CNC(=S)c1c(-c2ccc(Cl)cc2)c2c3n(c(-c4cccc(S(=O)(=O)N5CCOCC5)c4)nn13)CCCC2)OC | 0.453 | IC50 (FFLUC_HILL_SLOPE 2.83, FFLUC_R_SQUARED 0.688, HEPG2TOX_HILL_SLOPE 16.1, HEPG2TOX_R_SQUARED 0.632, PBLUC_HILL_SLOPE 13, PBLUC_R_SQUARED 0.649, read-out: LUCIFERASE INFECTION ASSAY - IC50): 0.383 µM |
| CCOC(=O)c1c(NC(=O)CSc2nnc3n(-c4c(C)cccc4C)c(=O)c4ccccc4n23)sc(C(C)=O)c1C | 5.29 | IC50 (FFLUC_HILL_SLOPE 2.66, FFLUC_R_SQUARED 0.447, PBLUC_HILL_SLOPE 3.22, PBLUC_R_SQUARED 0.684, read-out: LUCIFERASE INFECTION ASSAY - IC50): 2.67 µM |
| O=[N+]([O-])c1ccc(-c2[nH]nc(-c3ccccc3)c2-c2ccc3ccccc3n2)cc1 | 9.84 | IC50 (FFLUC_HILL_SLOPE 2.78, FFLUC_R_SQUARED 0.0561, HEPG2TOX_HILL_SLOPE 6.28, HEPG2TOX_R_SQUARED 0.62, PBLUC_HILL_SLOPE 3.02, PBLUC_R_SQUARED 0.452, read-out: LUCIFERASE INFECTION ASSAY - IC50): 4.75 µM |
| Cc1ccc(C2CC(c3cccs3)=NN2c2ccc(C=C(C#N)C#N)cc2)o1 (stereo not given) | > 10 | IC50 (FFLUC_HILL_SLOPE 2.65, FFLUC_R_SQUARED 0.905, HEPG2TOX_HILL_SLOPE 1.94, HEPG2TOX_R_SQUARED 0.705, PBLUC_HILL_SLOPE 0.92, PBLUC_R_SQUARED 0.729, read-out: LUCIFERASE INFECTION ASSAY - IC50): 1.71 µM |
| Cc1ccc(NC(=O)Nc2cnn(-c3ccc([N+](=O)[O-])cc3)c2C(F)(F)F)cc1F | 3.46 | IC50 (FFLUC_HILL_SLOPE 2.79, FFLUC_R_SQUARED 0.315, HEPG2TOX_HILL_SLOPE 0.0932, HEPG2TOX_R_SQUARED 0.068, PBLUC_HILL_SLOPE 11.4, PBLUC_R_SQUARED 0.0999, read-out: LUCIFERASE INFECTION ASSAY - IC50): 2.85 µM |
| C/N=c1\scc(-c2ccc(OC(F)F)cc2)n1/N=C/c1cccs1 | 2.72 | IC50 (FFLUC_HILL_SLOPE 2.65, FFLUC_R_SQUARED 0.0605, PBLUC_HILL_SLOPE 1.58, PBLUC_R_SQUARED 0.688, read-out: LUCIFERASE INFECTION ASSAY - IC50): 0.676 µM |
| O=C(CSc1nnc(Nc2ccc(Oc3ccccc3)cc2)s1)c1cccs1 | 4.38 | IC50 (FFLUC_HILL_SLOPE 2.69, FFLUC_R_SQUARED 0.808, PBLUC_HILL_SLOPE 3.49, PBLUC_R_SQUARED 0.557, read-out: LUCIFERASE INFECTION ASSAY - IC50): 2.33 µM |
| Cc1ccc(NC(=O)NC(=O)CSc2nccn2Cc2ccccc2)c(C)c1 | > 10 | IC50 (FFLUC_HILL_SLOPE 2.79, FFLUC_R_SQUARED 0.544, read-out: LUCIFERASE INFECTION ASSAY - IC50): > 10 µM |
| CCOC(=O)c1c(C)noc1/C(C)=N/Nc1cc(C(F)(F)F)cc(C(F)(F)F)c1 | > 7.8 | IC50 (FFLUC_HILL_SLOPE 2.91, FFLUC_R_SQUARED 0.779, PBLUC_HILL_SLOPE 12.4, PBLUC_R_SQUARED 0.288, read-out: LUCIFERASE INFECTION ASSAY - IC50): > 7.8 µM |
| CC(=O)NCCCc1ccc(C(=O)COC(=O)c2cc(Cl)c[nH]2)cc1 | > 10 | IC50 (FFLUC_HILL_SLOPE 2.83, FFLUC_R_SQUARED 0.674, read-out: LUCIFERASE INFECTION ASSAY - IC50): > 10 µM |
| C/C(=N\NC(=S)NC(C)(C)C)c1cc(F)cc(Cl)c1O | 4.66 | IC50 (FFLUC_HILL_SLOPE 2.86, FFLUC_R_SQUARED 0.466, HEPG2TOX_HILL_SLOPE 2.1, HEPG2TOX_R_SQUARED 0.731, PBLUC_HILL_SLOPE 9.8, PBLUC_R_SQUARED 0.522, read-out: LUCIFERASE INFECTION ASSAY - IC50): 3.72 µM |
| Cc1ccc(-c2nn(-c3ccccc3)cc2/C=N/Nc2ncnc(N)c2[N+](=O)[O-])o1 | 1.28 | IC50 (FFLUC_HILL_SLOPE 2.88, FFLUC_R_SQUARED 0.103, HEPG2TOX_HILL_SLOPE 0.791, HEPG2TOX_R_SQUARED 0.887, PBLUC_HILL_SLOPE 4.72, PBLUC_R_SQUARED 0.877, read-out: LUCIFERASE INFECTION ASSAY - IC50): 0.806 µM |
| CCOC(=O)c1c(N2C(=O)C=CC2=O)sc2c1CCCC2 | > 10.8 | IC50 (FFLUC_HILL_SLOPE 2.83, FFLUC_R_SQUARED 0.0392, read-out: LUCIFERASE INFECTION ASSAY - IC50): > 10.8 µM |
| CC1=NN(c2ccccc2)C(=O)/C1=C\c1cc(C)n(-c2cc(C(F)(F)F)ccc2Cl)c1C | > 10 | IC50 (FFLUC_HILL_SLOPE 2.69, FFLUC_R_SQUARED 0.551, PBLUC_HILL_SLOPE 5.7, PBLUC_R_SQUARED 0.538, read-out: LUCIFERASE INFECTION ASSAY - IC50): 7.1 µM |
| C=C(C)CNC(=S)N/N=C1\C(=O)Nc2ccc([N+](=O)[O-])cc21 | > 10 | IC50 (FFLUC_HILL_SLOPE 2.67, FFLUC_R_SQUARED 0.288, PBLUC_HILL_SLOPE 15.8, PBLUC_R_SQUARED 0.124, read-out: LUCIFERASE INFECTION ASSAY - IC50): 8.97 µM |
| COC(=O)C1C(c2ccc(N(C)C)cc2)C(C(=O)OC)S(=O)(=O)C(=NNc2ccc(OC)cc2[N+](=O)[O-])S1(=O)=O (stereo not given) | > 10 | IC50 (FFLUC_HILL_SLOPE 2.66, FFLUC_R_SQUARED 0.775, read-out: LUCIFERASE INFECTION ASSAY - IC50): > 10 µM |
| O=C1C(=O)N(Cc2cc3c(cc2Cl)OCO3)c2ccc(Cl)cc21 | > 9.42 | IC50 (FFLUC_HILL_SLOPE 2.77, FFLUC_R_SQUARED 0.777, PBLUC_HILL_SLOPE 11.7, PBLUC_R_SQUARED 0.0264, read-out: LUCIFERASE INFECTION ASSAY - IC50): 8.5 µM |
| Cc1c(Cl)cnc(NC(=O)CSc2nnc(-c3ccccc3)o2)c1Cl | 2.88 | IC50 (FFLUC_HILL_SLOPE 2.78, FFLUC_R_SQUARED 0.409, HEPG2TOX_HILL_SLOPE 3.93, HEPG2TOX_R_SQUARED 0.284, PBLUC_HILL_SLOPE 2.91, PBLUC_R_SQUARED 0.621, read-out: LUCIFERASE INFECTION ASSAY - IC50): 1.35 µM |
| N#CC1C(=N)Oc2c3c(c4ccccc4c2C1c1ccc(Cl)cc1)C(c1ccc(Cl)cc1)C(C#N)C(=N)O3 (stereo not given) | > 6.14 | IC50 (FFLUC_HILL_SLOPE 2.7, FFLUC_R_SQUARED 0.81, HEPG2TOX_HILL_SLOPE 15, HEPG2TOX_R_SQUARED 0.458, PBLUC_HILL_SLOPE 19.3, PBLUC_R_SQUARED 0.191, read-out: LUCIFERASE INFECTION ASSAY - IC50): 5.72 µM |
| Nc1c(C(=O)N2CCOCC2)sc2nc3c(cc12)CCCCC3 | 0.424 | IC50 (FFLUC_HILL_SLOPE 2.88, FFLUC_R_SQUARED 0.736, PBLUC_HILL_SLOPE 1.46, PBLUC_R_SQUARED 0.898, read-out: LUCIFERASE INFECTION ASSAY - IC50): 0.0939 µM |
